Key:
physchem = conditions: 66% dimethylformamide-water
Salmonella typhosa SA 12 = assay: Bauer-Kirby disc diffusion, zone of inhibition; conditions: Salmonella enterica
Description: (§1) The evaluation was made on the monoammonium salts of separated factors I and II.

Escherichia coli EC 25 = assay: Bauer-Kirby disc diffusion, zone of inhibition; format: cell-based
[1] = system: Ascaris lumbricoides var. suum; assay: anthelmintic evaluation in mice by treated feed, separate factors (Example 13); format: in vivo; conditions: 0.05 percent in diet, control 2.66
Description: The feeds were utilized as diets for separate groups of mice, five mice per group. About twelve hours after initiation of the feeding, the mice were infected with Ascaris lumbricoides var. suum ova. Another group of five mice was fed the non-medicated feed to serve as a control but was similarly infected at the same time with Ascaris lumbricoides var. suum. All groups were fed their respective feed and maintained under normal laboratory conditions for a period of eight days, at which time all mice were taken off feed. On the ninth day, all mice were sacrificed and the lungs examined to determine the presence, and if present, numbers, of lesions of Ascaris lumbricoides var. suum.
In a further evaluation, the monoammonium salts of A16886I and A16886II were separately evaluated for the control of Ascaris lumbricoides var. suum. The evaluations were conducted in accordance with the procedure reported in Example 11 at a concentration in the diet of 0.05 percent.

[2] = system: Staphylococcus aureus 3074; assay: Bauer-Kirby disc diffusion, zone of inhibition; format: cell-based
Salmonella typhosa SA 16 = assay: Bauer-Kirby disc diffusion, zone of inhibition; conditions: Salmonella enterica
Description: as §1

Proteus sp. PR7 = assay: Bauer-Kirby disc diffusion, zone of inhibition; format: cell-based
Pseudomonas sp. Ps 24 = assay: Bauer-Kirby disc diffusion, zone of inhibition; format: cell-based
solubility = format: physicochemical
[3] = system: Klebsiella-Aerobacter KA 14; assay: Bauer-Kirby disc diffusion, zone of inhibition; format: cell-based
Proteus sp. PR6 = assay: Bauer-Kirby disc diffusion, zone of inhibition; format: cell-based
Pseudomonas sp. Ps 30 = assay: Bauer-Kirby disc diffusion, zone of inhibition; format: cell-based
Escherichia coli 0127 = assay: Bauer-Kirby disc diffusion, zone of inhibition; format: cell-based
[4] = system: Staphylococcus aureus 3055; assay: Bauer-Kirby disc diffusion, zone of inhibition; format: cell-based
[5] = system: Klebsiella-Aerobacter KA 25; assay: Bauer-Kirby disc diffusion, zone of inhibition; format: cell-based

`NC(=O)OCC1=C(C(=O)O)N2C(=O)C(NC(=O)CCCC(N)C(=O)O)[C@H]2SC1` (stereo partly drawn) [A16886II, 7-(5-amino-5-carboxyvaleramido)-3-(carbamoyloxymethyl)-3-cephem-4-carboxylic acid] showed a pKa (physchem; pH 6.8, pK'a1) of 4, a pKa (physchem; pH 6.8, pK'a2) of 5.3 and a pKa (physchem; pH 6.8, pK'a3) of 9.2. The pKa (physchem; pH 6.8, pK'a4) was 10.5, the pKa (physchem; pH 7.7, pK'a1) was 4.4 and the pKa (physchem; pH 7.7, pK'a2) was 5.7. The pKa (physchem; pH 7.7, pK'a3) was 9.6, the pKa (physchem; pH 7.7, pK'a4) was 10.4 and the zone of inhibition at 0.5 µg/disc (Salmonella typhosa SA 12) was 0 mm. For the same molecule, the zone of inhibition at 1 µg/disc (Salmonella typhosa SA 12) was 7.5 mm, the zone of inhibition at 2.5 µg/disc (Salmonella typhosa SA 12) was 12.3 mm and the zone of inhibition at 5 µg/disc (Salmonella typhosa SA 12) was 15.6 mm. For the same molecule, the zone of inhibition at 10 µg/disc (Salmonella typhosa SA 12) was 18.7 mm, the zone of inhibition at 30 µg/disc (Salmonella typhosa SA 12) was 23.8 mm and the zone of inhibition at 0.5 µg/disc (Escherichia coli EC 25; EC25, 0.5 μg./disc) was 0 mm. It also gave a zone of inhibition at 1 µg/disc (Escherichia coli EC 25; EC25, 1.0 μg./disc) of 0 mm, a zone of inhibition at 2.5 µg/disc (Escherichia coli EC 25; EC25, 2.5 μg./disc) of 0 mm and a zone of inhibition at 5 µg/disc (Escherichia coli EC 25; EC25, 5 μg./disc) of 0 mm. For the same molecule, the zone of inhibition at 10 µg/disc (Escherichia coli EC 25; EC25, 10 μg./disc) was 7.7 mm, the zone of inhibition at 30 µg/disc (Escherichia coli EC 25; EC25, 30 μg./disc) was 11.9 mm and the “Average Number of Lung Lesions Per Group” value [1] was 0.20. For the same molecule, the zone of inhibition at 0.5 µg/disc ([2]; 0.5 μg./disc) was 0 mm, the zone of inhibition at 1 µg/disc ([2]; 1.0 μg./disc) was 0 mm and the zone of inhibition at 2.5 µg/disc ([2]; 2.5 μg./disc) was 0 mm. The zone of inhibition at 5 µg/disc ([2]; 5 μg./disc) was 0 mm, the zone of inhibition at 10 µg/disc ([2]; 10 μg./disc) was 0 mm and the zone of inhibition at 30 µg/disc ([2]; 30 μg./disc) was 10.1 mm. It also gave a zone of inhibition at 0.5 µg/disc (Salmonella typhosa SA 16) of 0 mm, a zone of inhibition at 1 µg/disc (Salmonella typhosa SA 16) of 0 mm and a zone of inhibition at 2.5 µg/disc (Salmonella typhosa SA 16) of 7.5 mm. It also gave a zone of inhibition at 5 µg/disc (Salmonella typhosa SA 16) of 11 mm, a zone of inhibition at 10 µg/disc (Salmonella typhosa SA 16) of 13.4 mm and a zone of inhibition at 30 µg/disc (Salmonella typhosa SA 16) of 19.3 mm. It also gave a zone of inhibition at 0.5 µg/disc (Proteus sp. PR7; 0.5 μg./disc) of 0 mm, a zone of inhibition at 1 µg/disc (Proteus sp. PR7; 1.0 μg./disc) of 0 mm and a zone of inhibition at 2.5 µg/disc (Proteus sp. PR7; 2.5 μg./disc) of 0 mm. It also gave a zone of inhibition at 5 µg/disc (Proteus sp. PR7; 5 μg./disc) of 0 mm, a zone of inhibition at 10 µg/disc (Proteus sp. PR7; 10 μg./disc) of 0 mm and a zone of inhibition at 30 µg/disc (Proteus sp. PR7; 30 μg./disc) of 7.1 mm. The zone of inhibition at 0.5 µg/disc (Pseudomonas sp. Ps 24; SP.PS24, 0.5 μg./disc) was 0 mm, the zone of inhibition at 1 µg/disc (Pseudomonas sp. Ps 24; SP.PS24, 1.0 μg./disc) was 0 mm and the zone of inhibition at 2.5 µg/disc (Pseudomonas sp. Ps 24; SP.PS24, 2.5 μg./disc, * = satellite colonies within zone (Factor II)) was 9.3 mm. The zone of inhibition at 5 µg/disc (Pseudomonas sp. Ps 24; SP.PS24, 5 μg./disc, * = satellite colonies within zone (Factor II)) was 12.3 mm, the zone of inhibition at 10 µg/disc (Pseudomonas sp. Ps 24; SP.PS24, 10 μg./disc) was 15.4 mm and the zone of inhibition at 30 µg/disc (Pseudomonas sp. Ps 24; SP.PS24, 30 μg./disc) was 20.2 mm. The “solubility in acetonitrile and other organic solvents” value (solubility; acetonitrile and other organic solvents) was “essentially insoluble”, the “solubility in lower alkanols” value (solubility; lower alkanols) was “slightly soluble” and the solubility in water (solubility; water) was “very soluble”. It also gave a zone of inhibition at 0.5 µg/disc ([3]; 0.5 μg./disc) of 0 mm, a zone of inhibition at 1 µg/disc ([3]; 1.0 μg./disc) of 0 mm and a zone of inhibition at 2.5 µg/disc ([3]; 2.5 μg./disc) of 0 mm. For the same molecule, the zone of inhibition at 5 µg/disc ([3]; 5 μg./disc) was 10.8 mm, the zone of inhibition at 10 µg/disc ([3]; 10 μg./disc) was 13.7 mm and the zone of inhibition at 30 µg/disc ([3]; 30 μg./disc) was 20.1 mm. For the same molecule, the zone of inhibition at 0.5 µg/disc (Proteus sp. PR6; 0.5 μg./disc) was 0 mm, the zone of inhibition at 1 µg/disc (Proteus sp. PR6; 1.0 μg./disc) was 0 mm and the zone of inhibition at 2.5 µg/disc (Proteus sp. PR6; 2.5 μg./disc) was 10.4 mm. The zone of inhibition at 5 µg/disc (Proteus sp. PR6; 5 μg./disc) was 13.6 mm, the zone of inhibition at 10 µg/disc (Proteus sp. PR6; 10 μg./disc) was 16.7 mm and the zone of inhibition at 30 µg/disc (Proteus sp. PR6; 30 μg./disc) was 22.2 mm. The zone of inhibition at 0.5 µg/disc (Pseudomonas sp. Ps 30; SP.PS30, 0.5 μg./disc) was 0 mm, the zone of inhibition at 1 µg/disc (Pseudomonas sp. Ps 30; SP.PS30, 1.0 μg./disc) was 0 mm and the zone of inhibition at 2.5 µg/disc (Pseudomonas sp. Ps 30; SP.PS30, 2.5 μg./disc) was 0 mm. For the same molecule, the zone of inhibition at 5 µg/disc (Pseudomonas sp. Ps 30; SP.PS30, 5 μg./disc) was 0 mm, the zone of inhibition at 10 µg/disc (Pseudomonas sp. Ps 30; SP.PS30, 10 μg./disc) was 0 mm and the zone of inhibition at 30 µg/disc (Pseudomonas sp. Ps 30; SP.PS30, 30 μg./disc) was 0 mm. It also gave a zone of inhibition at 0.5 µg/disc (Escherichia coli 0127; 0.5 μg./disc) of 0 mm, a zone of inhibition at 1 µg/disc (Escherichia coli 0127; 1.0 μg./disc) of 0 mm and a zone of inhibition at 2.5 µg/disc (Escherichia coli 0127; 2.5 μg./disc) of 9.4 mm. The zone of inhibition at 5 µg/disc (Escherichia coli 0127; 5 μg./disc) was 12.9 mm, the zone of inhibition at 10 µg/disc (Escherichia coli 0127; 10 μg./disc) was 15.9 mm and the zone of inhibition at 30 µg/disc (Escherichia coli 0127; 30 μg./disc) was 19.7 mm. The zone of inhibition at 0.5 µg/disc ([4]; 0.5 μg./disc) was 0 mm, the zone of inhibition at 1 µg/disc ([4]; 1.0 μg./disc) was 0 mm and the zone of inhibition at 2.5 µg/disc ([4]; 2.5 μg./disc) was 0 mm. The zone of inhibition at 5 µg/disc ([4]; 5 μg./disc) was 0 mm, the zone of inhibition at 10 µg/disc ([4]; 10 μg./disc) was 0 mm and the zone of inhibition at 30 µg/disc ([4]; 30 μg./disc) was 12.4 mm. It also gave a zone of inhibition at 0.5 µg/disc ([5]; 0.5 μg./disc) of 0 mm, a zone of inhibition at 1 µg/disc ([5]; 1.0 μg./disc) of 0 mm and a zone of inhibition at 2.5 µg/disc ([5]; 2.5 μg./disc) of 0 mm. The zone of inhibition at 5 µg/disc ([5]; 5 μg./disc) was 7.4 mm, the zone of inhibition at 10 µg/disc ([5]; 10 μg./disc) was 10.1 mm and the zone of inhibition at 30 µg/disc ([5]; 30 μg./disc) was 15.6 mm.

Source: US4123612A, “7-(5-Am ino-5-carboxyvaleramido)-3-(carbamoyoloxymethyl)-3-cephem-4-carboxylic acid” (Eli Lilly and Company, priority 1974, dated 1978)
